Activity calls are given as the source filed them. No cut-off for these calls is given here.
Tests used:
[1] = tested on: Fibroblast of cardiac tissue; assay: Reversal of Ang II-induced increase in […] level in neonatal rat cardiac fibroblasts by Western blot analysis; assay type: functional, cell-based
Mus musculus [2] = assay: Anti-myocardial remodeling function in isoproterenol-induced C57BL/6 mouse heart injury model assessed as reversal of pathological damage at 20 to 50 mg/kg by one-time gavage for 21 days by Masson staining and Sirius Red staining based analysis; assay type: functional, organism-based; conditions: dose 20-50 mg/kg, time 21.0 day
[3] = tested on: Fibroblast of cardiac tissue; assay: Reversal of Ang II-induced proliferation in neonatal rat cardiac fibroblasts measured after 48 hrs by MTT assay; assay type: functional, cell-based
Mus musculus [4] = assay: Anti-myocardial remodeling function in isoproterenol-induced C57BL/6 mouse model assessed as increase in ejection fraction at 20 mg/kg by one-time gavage for 21 days; assay type: functional; conditions: time 21 day
[5] = Half life in Sprague-Dawley rat at 2 mg/kg, iv measured upto 24 hrs; assay type: ADME, organism-based; conditions: in vivo
[6] = Acute toxicity in C57BL/6 mouse assessed as effect on liver at 2 g/Kg by hematoxylin and eosin staining based histopathological analysis; assay type: tissue-based; conditions: in vivo, 2000 mg/kg
[7] = Cytotoxicity against neonatal rat cardiac fibroblast assessed as cell survival rate at 10 uM measured after 48 hrs by MTT assay relative to control; assay type: toxicity, cell-based, Fibroblast of cardiac tissue; conditions: neonatal rat cardiac fibroblasts, read-out: Activity
Mus musculus [8] = assay: Anti-myocardial remodeling function in isoproterenol-induced C57BL/6 mouse model assessed as decrease in cardiac hypertrophy ANP protein at 20 mg/kg by one-time gavage for 21 days relative to control; assay type: functional; design: scale not given: the % may be the effect or the level left; conditions: time 21 day
[9] = tested on: Fibroblast of cardiac tissue; assay: Antimigratory activity in neonatal rat cardiac fibroblasts assessed as fold decrease in Ang II-induced migration measured after 48 hrs by transwell test (reference value: 1.8 fold); assay type: functional
[10] = tested on: Fibroblast of cardiac tissue; assay: Antimigratory activity in neonatal rat cardiac fibroblasts assessed as fold decrease in Ang II-induced migration measured after 48 hrs by scratch test; assay type: functional
Mus musculus [11] = assay: Anti-myocardial remodeling function in isoproterenol-induced C57BL/6 mouse model assessed as decrease in cardiac hypertrophy ANP protein at 50 mg/kg by one-time gavage for 21 days relative to control; assay type: functional; design: scale not given: the % may be the effect or the level left; conditions: time 21 day
[12] = AUC in Sprague-Dawley rat at 2 mg/kg, iv measured upto 24 hrs; assay type: ADME, organism-based; design: dose 2 mg/kg, time < 24 hrs, route iv; conditions: in vivo
[13] = Volume of distribution at steady state in Sprague-Dawley rat at 2 mg/kg, iv measured upto 24 hrs; assay type: ADME, organism-based; conditions: in vivo, read-out: Vdss
[14] = tested on: Fibroblast of cardiac tissue; assay: Reversal of Ang II-induced increase in alpha-SMA level in neonatal rat cardiac fibroblasts by Western blot analysis; assay type: functional, cell-based
[15] = tested on: Fibroblast of cardiac tissue; assay: Reversal of Ang II-induced increase in collagen I level in neonatal rat cardiac fibroblasts by Western blot analysis; assay type: functional, cell-based
[16] = AUC in Sprague-Dawley rat at 10 mg/kg, po measured upto 24 hrs; assay type: ADME, organism-based; design: dose 10 mg/kg, time < 24 hrs, route po; conditions: in vivo
[17] = Oral bioavailability in Sprague-Dawley rat at 10 mg/kg measured upto 24 hrs; assay type: ADME, organism-based; conditions: in vivo
[18] = Volume of distribution at steady state in Sprague-Dawley rat at 10 mg/kg, po measured upto 24 hrs; assay type: ADME, organism-based; conditions: in vivo
Mus musculus [19] = assay: Anti-myocardial remodeling function in isoproterenol-induced C57BL/6 mouse model assessed as decrease in heart weight to body weight ratio at 20 mg/kg by one-time gavage for 21 days; assay type: functional; conditions: time 21 day
Mus musculus [20] = assay: Anti-myocardial remodeling function in isoproterenol-induced C57BL/6 mouse model assessed as decrease in cardiac hypertrophy BNP protein at 50 mg/kg by one-time gavage for 21 days relative to control; assay type: functional; design: scale not given: the % may be the effect or the level left; conditions: time 21 day
[21] = Acute toxicity in C57BL/6 mouse assessed as effect on heart at 2 g/Kg by hematoxylin and eosin staining based histopathological analysis; assay type: tissue-based; conditions: in vivo, 2000 mg/kg
Mus musculus [22] = assay: Anti-myocardial remodeling function in isoproterenol-induced C57BL/6 mouse model assessed as decrease in heart weight to […] ratio at 20 mg/kg by one-time gavage for 21 days; assay type: functional; conditions: time 21 day
[23] = Half life in Sprague-Dawley rat at 10 mg/kg, po measured upto 24 hrs; assay type: ADME, organism-based; conditions: in vivo
[24] = Tmax in Sprague-Dawley rat at 10 mg/kg, po measured upto 24 hrs; assay type: ADME, organism-based; conditions: in vivo
[25] = biological target: Lysine-specific demethylase 5C (Homo sapiens, UniProt P41229); assay: Inhibition of KDM5C (unknown origin) incubated for 30 mins by HRTF assay
Chain of Lysine-specific demethylase 5C (P41229 whole entry): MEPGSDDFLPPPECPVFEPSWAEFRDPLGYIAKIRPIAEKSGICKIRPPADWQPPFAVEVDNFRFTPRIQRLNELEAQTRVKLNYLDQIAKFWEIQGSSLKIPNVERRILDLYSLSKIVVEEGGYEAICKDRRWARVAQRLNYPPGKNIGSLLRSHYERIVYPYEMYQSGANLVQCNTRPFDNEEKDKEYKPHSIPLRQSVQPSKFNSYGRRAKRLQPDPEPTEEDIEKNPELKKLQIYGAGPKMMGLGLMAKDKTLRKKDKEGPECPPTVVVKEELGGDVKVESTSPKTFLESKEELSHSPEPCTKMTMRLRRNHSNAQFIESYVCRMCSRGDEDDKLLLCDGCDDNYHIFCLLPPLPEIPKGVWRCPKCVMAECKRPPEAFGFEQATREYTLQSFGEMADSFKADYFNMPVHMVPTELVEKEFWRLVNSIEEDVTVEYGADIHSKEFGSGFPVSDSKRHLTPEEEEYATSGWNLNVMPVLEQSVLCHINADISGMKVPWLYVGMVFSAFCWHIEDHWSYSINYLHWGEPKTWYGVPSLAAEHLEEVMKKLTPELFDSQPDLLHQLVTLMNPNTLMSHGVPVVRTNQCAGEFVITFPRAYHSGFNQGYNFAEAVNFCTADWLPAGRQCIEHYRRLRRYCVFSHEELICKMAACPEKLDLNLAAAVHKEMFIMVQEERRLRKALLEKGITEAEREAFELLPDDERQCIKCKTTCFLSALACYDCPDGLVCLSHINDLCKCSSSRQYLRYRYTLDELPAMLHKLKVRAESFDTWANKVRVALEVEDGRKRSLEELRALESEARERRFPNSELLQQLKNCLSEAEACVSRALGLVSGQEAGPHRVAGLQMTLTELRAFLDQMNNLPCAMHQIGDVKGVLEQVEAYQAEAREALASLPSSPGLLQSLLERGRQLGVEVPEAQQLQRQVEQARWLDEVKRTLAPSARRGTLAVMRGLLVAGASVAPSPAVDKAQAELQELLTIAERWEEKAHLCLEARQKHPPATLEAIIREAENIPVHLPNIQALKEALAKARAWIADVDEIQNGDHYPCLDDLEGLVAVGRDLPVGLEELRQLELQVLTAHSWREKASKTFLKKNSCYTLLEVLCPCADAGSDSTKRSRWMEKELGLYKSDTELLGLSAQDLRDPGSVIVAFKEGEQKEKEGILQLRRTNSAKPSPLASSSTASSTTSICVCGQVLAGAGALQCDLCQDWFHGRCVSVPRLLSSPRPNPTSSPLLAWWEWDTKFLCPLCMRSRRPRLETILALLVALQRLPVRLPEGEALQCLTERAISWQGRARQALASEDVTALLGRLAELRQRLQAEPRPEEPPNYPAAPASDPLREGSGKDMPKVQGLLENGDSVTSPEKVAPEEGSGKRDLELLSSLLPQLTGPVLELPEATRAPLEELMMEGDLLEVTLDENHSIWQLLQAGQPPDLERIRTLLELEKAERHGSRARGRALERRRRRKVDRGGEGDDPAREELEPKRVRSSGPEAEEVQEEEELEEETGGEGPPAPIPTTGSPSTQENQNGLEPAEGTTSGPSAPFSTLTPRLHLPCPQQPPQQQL

Mus musculus [26] = assay: Anti-myocardial remodeling function in isoproterenol-induced C57BL/6 mouse model assessed as increase in shortening fraction at 50 mg/kg by one-time gavage for 21 days; assay type: functional; conditions: time 21 day
Mus musculus [27] = assay: Anti-myocardial remodeling function in isoproterenol-induced C57BL/6 mouse model assessed as increase in shortening fraction at 20 mg/kg by one-time gavage for 21 days; assay type: functional; conditions: time 21 day
Mus musculus [28] = assay: Anti-myocardial remodeling function in isoproterenol-induced C57BL/6 mouse model assessed as decrease in heart weight to […] ratio at 50 mg/kg by one-time gavage for 21 days; assay type: functional; conditions: time 21 day
[29] = biological target: T1, Lysine-specific demethylase 5B (Homo sapiens, UniProt Q9UGL1); assay: Inhibition of KDM5B (unknown origin) incubated for 30 mins by HRTF assay
T1 sequence (Q9UGL1 whole entry): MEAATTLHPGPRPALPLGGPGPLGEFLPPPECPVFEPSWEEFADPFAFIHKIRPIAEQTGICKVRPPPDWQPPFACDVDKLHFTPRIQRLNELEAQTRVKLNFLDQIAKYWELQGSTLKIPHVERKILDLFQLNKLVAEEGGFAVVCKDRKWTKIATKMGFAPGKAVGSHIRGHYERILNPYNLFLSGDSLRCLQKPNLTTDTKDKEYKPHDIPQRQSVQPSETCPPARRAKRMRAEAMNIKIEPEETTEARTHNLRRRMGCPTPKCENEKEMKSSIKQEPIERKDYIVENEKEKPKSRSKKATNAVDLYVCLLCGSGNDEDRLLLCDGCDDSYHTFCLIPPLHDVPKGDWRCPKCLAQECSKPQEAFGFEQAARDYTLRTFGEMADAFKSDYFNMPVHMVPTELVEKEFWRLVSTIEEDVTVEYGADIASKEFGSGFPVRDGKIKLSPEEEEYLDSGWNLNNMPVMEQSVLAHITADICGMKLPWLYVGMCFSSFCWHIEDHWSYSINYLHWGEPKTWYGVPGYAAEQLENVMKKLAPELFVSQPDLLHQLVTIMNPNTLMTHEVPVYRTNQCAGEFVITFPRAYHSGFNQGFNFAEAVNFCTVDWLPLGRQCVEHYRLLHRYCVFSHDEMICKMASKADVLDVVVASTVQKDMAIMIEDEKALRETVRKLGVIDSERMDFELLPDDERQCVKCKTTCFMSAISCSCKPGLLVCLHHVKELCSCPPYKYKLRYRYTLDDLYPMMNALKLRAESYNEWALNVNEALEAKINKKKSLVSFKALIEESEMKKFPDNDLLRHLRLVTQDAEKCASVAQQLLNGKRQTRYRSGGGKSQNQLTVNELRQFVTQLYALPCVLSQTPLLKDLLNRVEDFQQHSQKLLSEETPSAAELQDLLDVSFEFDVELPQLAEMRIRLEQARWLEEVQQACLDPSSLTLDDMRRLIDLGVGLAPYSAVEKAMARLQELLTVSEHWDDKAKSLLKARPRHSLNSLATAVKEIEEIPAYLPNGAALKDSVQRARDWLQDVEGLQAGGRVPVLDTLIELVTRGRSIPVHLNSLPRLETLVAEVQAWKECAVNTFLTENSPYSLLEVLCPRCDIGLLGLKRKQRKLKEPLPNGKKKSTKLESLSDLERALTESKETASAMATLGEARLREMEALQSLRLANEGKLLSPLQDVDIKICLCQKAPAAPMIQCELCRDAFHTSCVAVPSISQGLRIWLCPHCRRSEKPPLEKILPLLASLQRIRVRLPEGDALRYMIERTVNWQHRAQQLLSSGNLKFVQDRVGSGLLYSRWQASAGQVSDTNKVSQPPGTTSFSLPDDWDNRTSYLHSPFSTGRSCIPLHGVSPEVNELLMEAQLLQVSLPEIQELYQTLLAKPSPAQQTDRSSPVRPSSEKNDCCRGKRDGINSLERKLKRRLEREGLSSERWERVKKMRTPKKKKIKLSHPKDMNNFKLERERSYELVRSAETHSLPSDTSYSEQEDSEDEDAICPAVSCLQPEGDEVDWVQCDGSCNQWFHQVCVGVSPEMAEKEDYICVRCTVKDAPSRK

[30] = tested on: Fibroblast of cardiac tissue; assay: Reversal of Ang II-induced decrease in H3K4me3 level in neonatal rat cardiac fibroblasts by immunofluorescence staining assay; assay type: functional, cell-based
[31] = Acute toxicity in C57BL/6 mouse assessed as survival at 2 g/Kg by one-time gavage measured after 2 weeks; conditions: in vivo, po, 2000 mg/kg, 336 h
[32] = biological target: T1, Lysine-specific demethylase 5B; assay: Inhibition of KDM5B (unknown origin) at 10 uM incubated for 30 mins by HRTF assay relative to control
[33] = Cmax in Sprague-Dawley rat at 2 mg/kg, iv measured upto 24 hrs; assay type: ADME, organism-based; design: time < 24 hrs, dose 2 mg/kg, route iv; conditions: in vivo
[34] = Cytotoxicity against neonatal rat Cardiomyocytes assessed as cell survival rate at 10 uM measured after 48 hrs by MTT assay; assay type: toxicity, cell-based, Cardiac muscle cell; conditions: read-out: Activity
Mus musculus [35] = assay: Anti-myocardial remodeling function in isoproterenol-induced C57BL/6 mouse model assessed as decrease in heart weight to body weight ratio at 50 mg/kg by one-time gavage for 21 days; assay type: functional; conditions: time 21 day
[36] = Clearance in Sprague-Dawley rat at 2 mg/kg, iv measured upto 24 hrs; assay type: ADME, organism-based; conditions: in vivo
[37] = biological target: Lysine-specific demethylase 5A (Homo sapiens, UniProt P29375); assay: Inhibition of KDM5A (unknown origin) incubated for 30 mins by HRTF assay
Chain of Lysine-specific demethylase 5A (P29375 whole entry): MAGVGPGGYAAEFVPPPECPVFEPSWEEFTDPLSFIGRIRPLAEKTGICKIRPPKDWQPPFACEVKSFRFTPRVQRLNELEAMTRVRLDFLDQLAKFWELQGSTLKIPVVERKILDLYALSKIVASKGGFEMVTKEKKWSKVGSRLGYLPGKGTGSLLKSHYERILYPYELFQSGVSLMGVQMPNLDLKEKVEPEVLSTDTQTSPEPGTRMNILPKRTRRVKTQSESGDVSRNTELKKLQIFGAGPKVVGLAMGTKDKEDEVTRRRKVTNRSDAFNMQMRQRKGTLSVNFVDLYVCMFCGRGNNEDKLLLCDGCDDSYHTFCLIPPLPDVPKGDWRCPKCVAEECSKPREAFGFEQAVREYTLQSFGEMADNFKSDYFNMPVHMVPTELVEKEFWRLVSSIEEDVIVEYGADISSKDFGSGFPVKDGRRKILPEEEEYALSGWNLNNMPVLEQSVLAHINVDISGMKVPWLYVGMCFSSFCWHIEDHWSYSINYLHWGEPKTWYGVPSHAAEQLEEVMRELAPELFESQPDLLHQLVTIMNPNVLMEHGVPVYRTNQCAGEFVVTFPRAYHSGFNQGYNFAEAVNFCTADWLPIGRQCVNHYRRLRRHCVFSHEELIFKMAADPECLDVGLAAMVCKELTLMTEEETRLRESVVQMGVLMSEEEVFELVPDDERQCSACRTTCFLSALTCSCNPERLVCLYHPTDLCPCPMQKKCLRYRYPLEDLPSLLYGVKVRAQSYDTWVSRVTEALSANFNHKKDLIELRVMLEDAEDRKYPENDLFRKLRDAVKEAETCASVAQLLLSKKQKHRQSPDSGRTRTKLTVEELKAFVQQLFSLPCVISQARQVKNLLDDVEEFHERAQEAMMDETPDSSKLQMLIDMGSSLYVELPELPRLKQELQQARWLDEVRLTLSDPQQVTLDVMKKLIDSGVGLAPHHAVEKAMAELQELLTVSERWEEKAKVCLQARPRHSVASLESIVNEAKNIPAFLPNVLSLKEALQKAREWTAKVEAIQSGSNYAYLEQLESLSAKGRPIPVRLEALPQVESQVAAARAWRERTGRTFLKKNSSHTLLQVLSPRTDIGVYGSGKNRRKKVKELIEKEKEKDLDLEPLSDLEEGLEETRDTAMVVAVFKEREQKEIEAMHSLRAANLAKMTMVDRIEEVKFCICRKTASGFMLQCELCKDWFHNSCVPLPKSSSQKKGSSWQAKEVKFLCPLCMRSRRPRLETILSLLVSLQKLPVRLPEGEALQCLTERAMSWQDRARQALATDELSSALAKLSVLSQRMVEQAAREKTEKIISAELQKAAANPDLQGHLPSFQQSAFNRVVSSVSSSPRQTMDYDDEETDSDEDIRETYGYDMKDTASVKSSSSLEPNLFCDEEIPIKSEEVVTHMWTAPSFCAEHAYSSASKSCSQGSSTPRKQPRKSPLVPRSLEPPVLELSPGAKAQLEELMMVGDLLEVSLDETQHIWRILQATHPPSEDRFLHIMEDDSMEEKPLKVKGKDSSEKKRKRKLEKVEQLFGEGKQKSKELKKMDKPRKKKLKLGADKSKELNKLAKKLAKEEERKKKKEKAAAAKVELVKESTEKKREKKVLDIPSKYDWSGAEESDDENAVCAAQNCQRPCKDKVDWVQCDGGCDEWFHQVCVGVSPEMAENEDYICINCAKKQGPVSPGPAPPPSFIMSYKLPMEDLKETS

[38] = Acute toxicity in C57BL/6 mouse assessed as effect on kidney at 2 g/Kg by hematoxylin and eosin staining based histopathological analysis; assay type: tissue-based; conditions: in vivo, 2000 mg/kg
[39] = Acute toxicity in C57BL/6 mouse assessed as effect on lung at 2 g/Kg by hematoxylin and eosin staining based histopathological analysis; assay type: tissue-based; conditions: in vivo, 2000 mg/kg
[40] = Acute toxicity in C57BL/6 mouse assessed as body weight at 2 g/Kg by one-time gavage measured after 2 weeks; conditions: in vivo, po, 2000 mg/kg, 336 h
[41] = tested on: Fibroblast of cardiac tissue; assay: Reversal of Ang II-induced decrease in H3K4me3 level in neonatal rat cardiac fibroblasts by Western blot analysis; assay type: functional, cell-based
Mus musculus [42] = assay: Anti-myocardial remodeling function in isoproterenol-induced C57BL/6 mouse model assessed as increase in ejection fraction at 50 mg/kg by one-time gavage for 21 days; assay type: functional; conditions: time 21 day
[43] = Clearance in Sprague-Dawley rat at 10 mg/kg, po measured upto 24 hrs; assay type: ADME, organism-based; conditions: in vivo
[44] = Cmax in Sprague-Dawley rat at 10 mg/kg, po measured upto 24 hrs; assay type: ADME, organism-based; design: dose 10 mg/kg, time < 24 hrs, route po; conditions: in vivo
Mus musculus [45] = assay: Anti-myocardial remodeling function in isoproterenol-induced C57BL/6 mouse model assessed as decrease in cardiac hypertrophy BNP protein at 20 mg/kg by one-time gavage for 21 days relative to control; assay type: functional; design: scale not given: the % may be the effect or the level left; conditions: time 21 day
[46] = Acute toxicity in C57BL/6 mouse assessed as effect on spleen at 2 g/Kg by hematoxylin and eosin staining based histopathological analysis; assay type: tissue-based; conditions: in vivo, 2000 mg/kg

SMILES: CC(C)c1cc(C(=O)N2CC[C@@H](NC(=O)NC3CC3)C2)n[nH]1
- Activity [1]: Active
- Activity (Mus musculus [2]): Active
- Activity [3]: Active
- Activity (Mus musculus [4]): 77%
- half-life [5]: 24 min
- Activity [6]: Non-Toxic
- viability at 48 h, 10 µM [7]: 90%
- Activity (Mus musculus [8]): 85%
- Ratio [9]: 0.6
- Ratio [10]: 0.77
- Activity (Mus musculus [11]): 71%
- AUC at 24 h [12]: 480 ng·h/mL
- Vd [13]: 2.7 L/kg
- Activity [14]: Active
- Activity [15]: Active
- AUC at 24 h [16]: 1040 ng·h/mL
- bioavailability [17]: 42.4%
- Vdss [18]: 33.4 L/kg
- Ratio (Mus musculus [19]): 0.93
- Activity (Mus musculus [20]): 54%
- Activity [21]: Non-Toxic
- Ratio (Mus musculus [22]): 0.93
- half-life [23]: 144 min
- Tmax [24]: 24 min
- IC50 [25]: 353 nM
- Activity (Mus musculus [26]): 50%
- Activity (Mus musculus [27]): 44%
- Ratio (Mus musculus [28]): 0.89
- IC50 [29]: 44 nM
- Activity [30]: Active
- Activity [31]: Non-Toxic
- inhibition [32]: 100%
- Cmax [33]: 1230 ng/mL
- viability at 48 h, 10 µM [34]: 90%
- Ratio (Mus musculus [35]): 0.89
- clearance [36]: 70 mL/min/kg
- IC50 [37]: 79 nM
- Activity [38]: Non-Toxic
- Activity [39]: Non-Toxic
- Activity [40]: Non-Toxic
- Activity [41]: Active
- Activity (Mus musculus [42]): 83%
- CL/F [43]: 165 mL/min/kg
- Cmax [44]: 710 ng/mL
- Activity (Mus musculus [45]): 75%
- Activity [46]: Non-Toxic

Reference: ChEMBL document CHEMBL5108046, “Discovery of Novel Pyrazole-Based KDM5B Inhibitor TK-129 and Its Protective Effects on Myocardial Remodeling and Fibrosis” (J Med Chem, 2022)
